# Test results taken from the supplement of paper PMC10307832.
# Tests used:
# Test in all cases: relative viability (nuclei count vs DMSO), 5 days (fraction); higher = more cells survive
# [1] = compound: Cc1ccc(Nc2nccc(N(C)c3ccc4c(C)n(C)nc4c3)n2)cc1S(N)(=O)=O [Pazopanib] + CC(=O)Nc1cccc(-n2c(=O)n(C3CC3)c(=O)c3c(Nc4ccc(I)cc4F)n(C)c(=O)c(C)c32)c1 [Trametinib] (partner 0.02 µM)
# Summary of the method: (§1)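 Cells from lung cancer lines were seeded into 1536-well plates and, one day later, dosed by pin tool. Treatments were either a single drug or a fixed dose of an anchor drug with five library-drug doses (not always all listed) in √10 steps. After 5 days, nuclei were stained in a one-step fixation (final 0.05% Triton X-100, 1% formaldehyde, 1 ug/ml Hoechst) and counted on 4× images, and relative viability is the treated-to-vehicle nuclei ratio, as the median of duplicate plates.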
# [2] = compound: Cc1ccc(C(=O)Nc2ccc(CN3CCN(C)CC3)c(C(F)(F)F)c2)cc1C#Cc1cnc2cccnn12 [Ponatinib] + COc1cc2c(Oc3ccc(NC(=O)C4(C(=O)Nc5ccc(F)cc5)CC4)cc3F)ccnc2cc1OCCCN1CCOCC1 [Foretinib] (partner 0.25 µM)
# Summary of the method: as §1
# [3] = compound: Cc1ccc(Nc2nccc(N(C)c3ccc4c(C)n(C)nc4c3)n2)cc1S(N)(=O)=O [Pazopanib] + CS(=O)(=O)N1CCN(Cc2cc3nc(-c4cccc5[nH]ncc45)nc(N4CCOCC4)c3s2)CC1 [Pictilisib] (partner 1 µM)
# Summary of the method: as §1
# [4] = compound: Cc1ccc(C(=O)Nc2ccc(CN3CCN(C)CC3)c(C(F)(F)F)c2)cc1C#Cc1cnc2cccnn12 [Ponatinib] + C[C@@H](Oc1cc(-c2cnn(C3CCNCC3)c2)cnc1N)c1c(Cl)ccc(F)c1Cl [Crizotinib] (partner 1 µM)
# Summary of the method: as §1
cell line,measurement,setting,value
NCI-H2342,relative viability,[1]; first compound 0.01 µM,0.778
same,relative viability,[1]; first compound 0.03162 µM,0.918
same,relative viability,[1]; first compound 0.1 µM,0.821
same,relative viability,[1]; first compound 0.3162 µM,0.754
same,relative viability,[1]; first compound 1 µM,0.674
same,relative viability,[2]; first compound 0.002 µM,1.04
same,relative viability,[2]; first compound 0.006325 µM,1.04
same,relative viability,[2]; first compound 0.06325 µM,1.01
same,relative viability,[2]; first compound 0.2 µM,0.972
HCC-15,relative viability,[1]; first compound 0.01 µM,0.326
same,relative viability,[1]; first compound 0.03162 µM,0.338
same,relative viability,[1]; first compound 0.1 µM,0.382
same,relative viability,[1]; first compound 0.3162 µM,0.417
same,relative viability,[1]; first compound 1 µM,0.406
same,relative viability,[3]; first compound 0.01 µM,0.703
same,relative viability,[3]; first compound 0.03162 µM,0.773
same,relative viability,[3]; first compound 0.1 µM,0.718
same,relative viability,[3]; first compound 0.3162 µM,0.857
same,relative viability,[3]; first compound 1 µM,1.06
same,relative viability,[4]; first compound 0.002 µM,0.828
same,relative viability,[4]; first compound 0.006325 µM,0.843
same,relative viability,[4]; first compound 0.06325 µM,0.858
same,relative viability,[4]; first compound 0.2 µM,0.802
same,relative viability,[2]; first compound 0.002 µM,0.974
same,relative viability,[2]; first compound 0.006325 µM,0.928
same,relative viability,[2]; first compound 0.06325 µM,1.13
same,relative viability,[2]; first compound 0.2 µM,1.01
A-427,relative viability,[1]; first compound 0.01 µM,0.7
same,relative viability,[1]; first compound 0.03162 µM,0.882
same,relative viability,[1]; first compound 0.1 µM,0.679
same,relative viability,[1]; first compound 0.3162 µM,0.71
same,relative viability,[1]; first compound 1 µM,0.753
same,relative viability,[3]; first compound 0.01 µM,0.612
same,relative viability,[3]; first compound 0.03162 µM,0.705
same,relative viability,[3]; first compound 0.1 µM,0.692
same,relative viability,[3]; first compound 0.3162 µM,0.746
same,relative viability,[3]; first compound 1 µM,0.782
same,relative viability,[4]; first compound 0.002 µM,0.875
same,relative viability,[4]; first compound 0.006325 µM,1.02
same,relative viability,[4]; first compound 0.06325 µM,0.838
same,relative viability,[4]; first compound 0.2 µM,0.743
same,relative viability,[2]; first compound 0.002 µM,1
same,relative viability,[2]; first compound 0.006325 µM,1.19
same,relative viability,[2]; first compound 0.06325 µM,1.11
same,relative viability,[2]; first compound 0.2 µM,0.715
NCI-H2228,relative viability,[1]; first compound 0.01 µM,0.353
same,relative viability,[1]; first compound 0.03162 µM,0.501
same,relative viability,[1]; first compound 0.1 µM,0.425
same,relative viability,[1]; first compound 0.3162 µM,0.32
same,relative viability,[1]; first compound 1 µM,0.759
same,relative viability,[3]; first compound 0.01 µM,0.46
same,relative viability,[3]; first compound 0.03162 µM,0.386
same,relative viability,[3]; first compound 0.1 µM,0.328
same,relative viability,[3]; first compound 0.3162 µM,0.393
same,relative viability,[3]; first compound 1 µM,0.511
same,relative viability,[4]; first compound 0.002 µM,0.434
same,relative viability,[4]; first compound 0.006325 µM,0.41
same,relative viability,[4]; first compound 0.06325 µM,0.385
same,relative viability,[4]; first compound 0.2 µM,0.234
same,relative viability,[2]; first compound 0.002 µM,0.656
same,relative viability,[2]; first compound 0.006325 µM,0.83
same,relative viability,[2]; first compound 0.06325 µM,0.907
same,relative viability,[2]; first compound 0.2 µM,0.791
NCI-H1734,relative viability,[1]; first compound 0.01 µM,0.669
same,relative viability,[1]; first compound 0.03162 µM,0.697
same,relative viability,[1]; first compound 0.1 µM,0.671
same,relative viability,[1]; first compound 0.3162 µM,0.612
same,relative viability,[1]; first compound 1 µM,0.626
same,relative viability,[3]; first compound 0.01 µM,0.385
same,relative viability,[3]; first compound 0.03162 µM,0.448
same,relative viability,[3]; first compound 0.1 µM,0.437
same,relative viability,[3]; first compound 0.3162 µM,0.53
same,relative viability,[3]; first compound 1 µM,0.461
same,relative viability,[4]; first compound 0.002 µM,0.638
same,relative viability,[4]; first compound 0.006325 µM,0.657
same,relative viability,[4]; first compound 0.06325 µM,0.647
same,relative viability,[4]; first compound 0.2 µM,0.577
same,relative viability,[2]; first compound 0.002 µM,0.73
same,relative viability,[2]; first compound 0.006325 µM,0.895
same,relative viability,[2]; first compound 0.06325 µM,0.821
same,relative viability,[2]; first compound 0.2 µM,0.809
NCI-H2347,relative viability,[1]; first compound 0.01 µM,0.211
same,relative viability,[1]; first compound 0.03162 µM,0.281
same,relative viability,[1]; first compound 0.1 µM,0.303
same,relative viability,[1]; first compound 0.3162 µM,0.282
same,relative viability,[1]; first compound 1 µM,0.281
same,relative viability,[3]; first compound 0.01 µM,0.513
same,relative viability,[3]; first compound 0.03162 µM,0.648
same,relative viability,[3]; first compound 0.1 µM,0.417
same,relative viability,[3]; first compound 0.3162 µM,0.601
same,relative viability,[3]; first compound 1 µM,0.548
same,relative viability,[4]; first compound 0.002 µM,0.694
same,relative viability,[4]; first compound 0.006325 µM,0.885
same,relative viability,[4]; first compound 0.06325 µM,0.668
same,relative viability,[4]; first compound 0.2 µM,0.688
same,relative viability,[2]; first compound 0.006325 µM,0.818
same,relative viability,[2]; first compound 0.06325 µM,1.38
same,relative viability,[2]; first compound 0.2 µM,1.01
PC-3 [JPC-3],relative viability,[1]; first compound 0.03162 µM,0.686
same,relative viability,[1]; first compound 0.1 µM,0.73
same,relative viability,[1]; first compound 0.3162 µM,0.835
same,relative viability,[1]; first compound 1 µM,0.65
same,relative viability,[3]; first compound 0.01 µM,0.745
same,relative viability,[3]; first compound 0.03162 µM,0.707
same,relative viability,[3]; first compound 0.1 µM,0.808
same,relative viability,[3]; first compound 0.3162 µM,0.73
same,relative viability,[3]; first compound 1 µM,0.716
same,relative viability,[4]; first compound 0.002 µM,0.925
same,relative viability,[4]; first compound 0.006325 µM,1.04
same,relative viability,[4]; first compound 0.06325 µM,1.11
same,relative viability,[4]; first compound 0.2 µM,0.989
same,relative viability,[2]; first compound 0.002 µM,0.947
same,relative viability,[2]; first compound 0.006325 µM,1.01
same,relative viability,[2]; first compound 0.06325 µM,1.15
same,relative viability,[2]; first compound 0.2 µM,1.03
NCI-H1915,relative viability,[1]; first compound 0.01 µM,0.294
same,relative viability,[1]; first compound 0.03162 µM,0.312
same,relative viability,[1]; first compound 0.1 µM,0.355
same,relative viability,[1]; first compound 0.3162 µM,0.336
same,relative viability,[1]; first compound 1 µM,0.347
same,relative viability,[3]; first compound 0.01 µM,0.905
same,relative viability,[3]; first compound 0.03162 µM,0.972
same,relative viability,[3]; first compound 0.1 µM,0.976
same,relative viability,[3]; first compound 0.3162 µM,0.971
same,relative viability,[3]; first compound 1 µM,0.899
same,relative viability,[4]; first compound 0.002 µM,0.801
same,relative viability,[4]; first compound 0.006325 µM,0.844
same,relative viability,[4]; first compound 0.06325 µM,0.839
same,relative viability,[4]; first compound 0.2 µM,0.794
same,relative viability,[2]; first compound 0.002 µM,1.03
same,relative viability,[2]; first compound 0.006325 µM,1.12
same,relative viability,[2]; first compound 0.06325 µM,0.996
same,relative viability,[2]; first compound 0.2 µM,1.01
NCI-H1666,relative viability,[1]; first compound 0.01 µM,0.925
same,relative viability,[1]; first compound 0.03162 µM,0.893
same,relative viability,[1]; first compound 0.1 µM,0.899
same,relative viability,[1]; first compound 0.3162 µM,0.884
same,relative viability,[1]; first compound 1 µM,1
same,relative viability,[3]; first compound 0.01 µM,0.369
same,relative viability,[3]; first compound 0.03162 µM,0.307
same,relative viability,[3]; first compound 0.1 µM,0.379
same,relative viability,[3]; first compound 0.3162 µM,0.421
same,relative viability,[3]; first compound 1 µM,0.426
same,relative viability,[4]; first compound 0.002 µM,0.951
same,relative viability,[4]; first compound 0.006325 µM,0.978
same,relative viability,[4]; first compound 0.06325 µM,1.06
same,relative viability,[4]; first compound 0.2 µM,0.989
same,relative viability,[2]; first compound 0.002 µM,0.967
same,relative viability,[2]; first compound 0.006325 µM,0.988
same,relative viability,[2]; first compound 0.06325 µM,1.06
same,relative viability,[2]; first compound 0.2 µM,0.886
